Laboratory results from PubChem BioAssay AID1259407 (Chemical Carcinogenesis Research Information System (CCRIS), 2018).
Calls of active or inactive are those of the source. No rule for the calls is given here.

System: CCRIS mutagenicity, Ames/micronucleus/aberration tests
Assay: CCRIS mutagenicity studies
[1] = Test System: AMES SALMONELLA TYPHIMURIUM, Strain/Indicator: TA98, Metabolic Activation: NONE, Method: PREINCUBATION
[2] = Test System: AMES SALMONELLA TYPHIMURIUM, Strain/Indicator: TA100, Metabolic Activation: NONE, Method: PREINCUBATION
[3] = Test System: AMES SALMONELLA TYPHIMURIUM, Strain/Indicator: TA98, Metabolic Activation: NONE, Method: STANDARD PLATE
[4] = Test System: AMES SALMONELLA TYPHIMURIUM, Strain/Indicator: TA100, Metabolic Activation: NONE, Method: STANDARD PLATE

In the case of NC(=O)Nc1nc2ccccc2[nH]1, the mutagenic call (Test System: AMES SALMONELLA TYPHIMURIUM, Strain/Indicator: TA98, Metabolic Activation: HAMSTER, LIVER, S-9, AROCLOR 1254 (30%), Method: PREINCUBATION) is reported as “active; positive”, the mutagenic call [1] is reported as “active; positive” and the mutagenic call (Test System: AMES SALMONELLA TYPHIMURIUM, Strain/Indicator: TA98, Metabolic Activation: RAT, LIVER, S-9, AROCLOR 1254 (30%), Method: PREINCUBATION) is reported as “active; positive”. The mutagenic call (Test System: AMES SALMONELLA TYPHIMURIUM, Strain/Indicator: TA100, Metabolic Activation: HAMSTER, LIVER, S-9, AROCLOR 1254 (30%), Method: PREINCUBATION) was “inactive; negative”, the mutagenic call [2] was “inactive; negative” and the mutagenic call (Test System: AMES SALMONELLA TYPHIMURIUM, Strain/Indicator: TA100, Metabolic Activation: RAT, LIVER, S-9, AROCLOR 1254 (30%), Method: PREINCUBATION) was “inactive; negative”.

COc1cc2c(cc1O)CC[C@@H]1[C@@H]2CC[C@]2(C)[C@@H](O)CC[C@@H]12 was tested, and the mutagenic call (Test System: Mouse lymphoma, Strain/Indicator: L5178Y (tk+/tk-), Metabolic Activation: Rat, Liver, S-9, Aroclor 1254, Method: Suspension/plate) was “active; equivocal (previous evaluation positive)”.

COP(=O)(OC)C(OC(=O)CCl)C(Cl)(Cl)Cl (stereo not drawn) was tested, and the mutagenic call [3] was “inactive; negative”, the mutagenic call (Test System: AMES SALMONELLA TYPHIMURIUM, Strain/Indicator: TA98, Metabolic Activation: RAT, LIVER, S-9, AROCLOR, Method: STANDARD PLATE) was “inactive; negative” and the mutagenic call [4] was “inactive; negative”. For the same compound, the mutagenic call (Test System: AMES SALMONELLA TYPHIMURIUM, Strain/Indicator: TA100, Metabolic Activation: RAT, LIVER, S-9, AROCLOR, Method: STANDARD PLATE) was “inactive; negative”, the mutagenic call (Test System: AMES SALMONELLA TYPHIMURIUM, Strain/Indicator: TA1535, Metabolic Activation: NONE, Method: STANDARD PLATE) was “inactive; negative” and the mutagenic call (Test System: AMES SALMONELLA TYPHIMURIUM, Strain/Indicator: TA1535, Metabolic Activation: RAT, LIVER, S-9, AROCLOR, Method: STANDARD PLATE) was “inactive; negative”. The mutagenic call (Test System: AMES SALMONELLA TYPHIMURIUM, Strain/Indicator: TA1537, Metabolic Activation: NONE, Method: STANDARD PLATE) was “inactive; negative” and the mutagenic call (Test System: AMES SALMONELLA TYPHIMURIUM, Strain/Indicator: TA1537, Metabolic Activation: RAT, LIVER, S-9, AROCLOR, Method: STANDARD PLATE) was “inactive; negative”.

In the case of CC1(OO)c2ccccc2-c2ccccc21, the mutagenic call [3] is reported as “active; positive”, the mutagenic call (Test System: AMES SALMONELLA TYPHIMURIUM, Strain/Indicator: TA98, Metabolic Activation: RAT, LIVER, S-9, AROCLOR 1254, Method: STANDARD PLATE) is reported as “active; positive” and the mutagenic call [4] is reported as “active; positive”. The mutagenic call (Test System: AMES SALMONELLA TYPHIMURIUM, Strain/Indicator: TA100, Metabolic Activation: RAT, LIVER, S-9, AROCLOR 1254, Method: STANDARD PLATE) was “active; positive”.

For C/C(Cl)=C/C=O, the mutagenic call (Test System: AMES SALMONELLA TYPHIMURIUM, Strain/Indicator: D3052, Metabolic Activation: NONE, Method: PREINCUBATION, LIQUID INCUBATION) was “active; positive”, the mutagenic call (Test System: AMES SALMONELLA TYPHIMURIUM, Strain/Indicator: TA98, Metabolic Activation: NONE, Method: PREINCUBATION, LIQUID INCUBATION) was “inactive; negative” and the mutagenic call (Test System: AMES SALMONELLA TYPHIMURIUM, Strain/Indicator: TA100, Metabolic Activation: NONE, Method: PREINCUBATION, LIQUID INCUBATION) was “inactive; negative”. The mutagenic call (Test System: AMES SALMONELLA TYPHIMURIUM, Strain/Indicator: TA1535, Metabolic Activation: NONE, Method: PREINCUBATION, LIQUID INCUBATION) was “inactive; negative” and the mutagenic call (Test System: AMES SALMONELLA TYPHIMURIUM, Strain/Indicator: TA1538, Metabolic Activation: NONE, Method: PREINCUBATION, LIQUID INCUBATION) was “inactive; negative”.

In the case of CCOC(=O)Nc1cccc2c1[nH]c1ccncc12, the mutagenic call (Test System: AMES SALMONELLA TYPHIMURIUM, Strain/Indicator: TA1537, Metabolic Activation: NONE, Method: PREINCUBATION) is reported as “inactive; negative” and the mutagenic call (Test System: AMES SALMONELLA TYPHIMURIUM, Strain/Indicator: TA1537, Metabolic Activation: RAT, LIVER, S-9, PHENOBARBITAL, Method: PREINCUBATION) is reported as “inactive; negative”.

With O=C(CCl)C(Cl)Cl the mutagenic call (Test System: AMES SALMONELLA TYPHIMURIUM, Strain/Indicator: TA100, Metabolic Activation: NONE, Method: FLUCTUATION TEST) was “active; positive” and the mutagenic call (Test System: AMES SALMONELLA TYPHIMURIUM, Strain/Indicator: TA100, Metabolic Activation: RAT, LIVER, S-9, AROCLOR 1254, Method: FLUCTUATION TEST) was “inactive; negative”.

For C=CC(=O)OCCBr, the mutagenic call (Test System: AMES SALMONELLA TYPHIMURIUM, Strain/Indicator: TA97, Metabolic Activation: HAMSTER, LIVER, S-9, AROCLOR 1254 (10%), Method: PREINCUBATION) was “inactive; negative”, the mutagenic call (Test System: AMES SALMONELLA TYPHIMURIUM, Strain/Indicator: TA97, Metabolic Activation: NONE, Method: PREINCUBATION) was “inactive; negative” and the mutagenic call (Test System: AMES SALMONELLA TYPHIMURIUM, Strain/Indicator: TA97, Metabolic Activation: RAT, LIVER, S-9, AROCLOR 1254 (10%), Method: PREINCUBATION) was “inactive; negative”. For the same compound, the mutagenic call (Test System: AMES SALMONELLA TYPHIMURIUM, Strain/Indicator: TA98, Metabolic Activation: HAMSTER, LIVER, S-9, AROCLOR 1254 (10%), Method: PREINCUBATION) was “inactive; negative”, the mutagenic call [1] was “inactive; negative” and the mutagenic call (Test System: AMES SALMONELLA TYPHIMURIUM, Strain/Indicator: TA98, Metabolic Activation: RAT, LIVER, S-9, AROCLOR 1254 (10%), Method: PREINCUBATION) was “inactive; negative”. The mutagenic call (Test System: AMES SALMONELLA TYPHIMURIUM, Strain/Indicator: TA100, Metabolic Activation: HAMSTER, LIVER, S-9, AROCLOR 1254 (10%), Method: PREINCUBATION) was “active; positive”, the mutagenic call [2] was “inactive; negative” and the mutagenic call (Test System: AMES SALMONELLA TYPHIMURIUM, Strain/Indicator: TA100, Metabolic Activation: RAT, LIVER, S-9, AROCLOR 1254 (10%), Method: PREINCUBATION) was “active; positive”. For the same compound, the mutagenic call (Test System: AMES SALMONELLA TYPHIMURIUM, Strain/Indicator: TA1535, Metabolic Activation: HAMSTER, LIVER, S-9, AROCLOR 1254 (10%), Method: PREINCUBATION) was “active; positive”, the mutagenic call (Test System: AMES SALMONELLA TYPHIMURIUM, Strain/Indicator: TA1535, Metabolic Activation: NONE, Method: PREINCUBATION) was “active; positive” and the mutagenic call (Test System: AMES SALMONELLA TYPHIMURIUM, Strain/Indicator: TA1535, Metabolic Activation: RAT, LIVER, S-9, AROCLOR 1254 (10%), Method: PREINCUBATION) was “active; positive”.

CC(C)Nc1nc(N)nc(Cl)n1 was tested, and the mutagenic call (Test System: AMES SALMONELLA TYPHIMURIUM, Strain/Indicator: TA97, Metabolic Activation: NONE, Method: STANDARD PLATE) was “inactive; negative”, the mutagenic call [3] was “inactive; negative” and the mutagenic call [4] was “inactive; negative”.
